Experimental data reported in patent US20240376097A1, “BCL-2 Inhibitor” (BeiGene Ltd., priority 2020, published 2024).

Assays:
[1] = tested on: RS4;11 (BCL-2 dependent acute lymphoblastic leukemia cell line); assay: RS4;11 Cell Proliferation Assay; type: cell-based; conditions: Homo sapiens, RS4;11 cells, read-out: Cellular proliferation assay (IC50, nM) RS4
Summary of the method: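 RS4;11 cells, 50,000 per well in RPMI-1640 with 10% FBS, treated 48 h at 37 °C with a 10-point dilution series topping at 1 μM. Viability read by CellTiter-Glo ATP luminescence; mean IC50 reported.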

[2] = molecular target: recombinant human Bcl-2 D103Y protein (Homo sapiens (Human), UniProt P10415, D103Y); assay: Bcl-2-D103Y Biochemical Assay (TR-FRET); type: binding; conditions: for IC50: TR-FRET, FITC labeled Bak peptide; for Ratio of Bcl-2 D103Y/Bcl-2 WT: ratio of IC50
Chain of recombinant human Bcl-2 D103Y protein (P10415 whole entry D103Y): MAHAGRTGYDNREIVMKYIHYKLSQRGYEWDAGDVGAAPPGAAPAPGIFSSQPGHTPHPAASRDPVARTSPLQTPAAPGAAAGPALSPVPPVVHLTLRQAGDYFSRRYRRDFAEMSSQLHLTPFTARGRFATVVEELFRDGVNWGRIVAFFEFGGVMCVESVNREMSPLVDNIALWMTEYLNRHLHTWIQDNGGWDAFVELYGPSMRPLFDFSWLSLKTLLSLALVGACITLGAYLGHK
Summary of the method: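 Recombinant human Bcl-2 D103Y binding to its ligand measured by TR-FRET (ex 337 nm, em 490/520 nm) with increasing compound concentrations. Percent inhibition from the 490/520 nm ratio; IC50 from four-parameter logistic fit.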

[3] = Metabolic Stability Study, liver microsome incubation (mouse); type: in vitro ADME; conditions: mouse liver microsomes 0.5 mg/mL, 1 μM compound, NADPH; for half-life at 1 μM: NA^# = very stable, beyond the detection limits, read-out: T1/2 (min) mouse; for microsomal CLint at 1 μM: read-out: CLint (μL × min^−1 × mg^−1) mouse
Protocol: Biological Example: Metabolic Stability Study
The metabolic stability of some compounds was evaluated by using the liver microsome incubation system in vitro. Briefly, the test compounds at 1 μM, were incubated with 0.5 mg/mL liver microsomes from different species (human, dog, rat and mouse) with an NADPH regenerating system at 37° C. Samples were quenched at three time points (0, 30, 60 min) with organic solvent containing internal standards, and the supernatant was analyzed for parent loss via LC-MS/MS. Midazolam was used as the positive control to validate the incubation system.
where Cprotein is the microsomal protein concentration in the incubation system.
The value of CLint and T1/2 of Example F132b in WO2019210818 and representative compounds of the disclosure were determined, and the results are shown in Table 5.

SMILES | IC50 [1] | IC50 [2] | Ratio of Bcl-2 D103Y/Bcl-2 WT [2] | half-life at 1 μM [3] | microsomal CLint at 1 μM [3] | ratio of Bcl-2 D103Y/Bcl-2 wt, compared with F91b in WO2019210828 ([2]; comparison in words)
CC(C)c1ccccc1C1CN(Cc2ccc(F)cc2)CCN1C1CC2(CCN(c3ccc(C(=O)NS(=O)(=O)c4ccc(NC[C@H]5CC[C@](C)(O)CC5)c([N+](=O)[O-])c4)c(Oc4cnc5[nH]ccc5c4)c3)CC2)C1 (some centres unmarked) [Example 28, 2-((1H-pyrrolo[2,3-b]pyridin-5-yl)oxy)-4-(2-(4-(4-fluorobenzyl)-2-(2-isopropylphenyl)piperazin-1-yl)-7-azaspiro[3.5]nonan-7-yl)-N-((4-((((1r,4r)-4-hydroxy-4-methylcyclohexyl)methyl)amino)-3-nitrophenyl)sulfonyl)benzamide] | 0.39 nM | 0.34 nM | 1.5 | 200 min | 6.9 µL/min/mg | –
CC(C)c1ccccc1C1CN(Cc2ccc(F)c(F)c2)CCN1C1CC2(CCN(c3ccc(C(=O)NS(=O)(=O)c4ccc(NC[C@H]5CC[C@](C)(O)CC5)c([N+](=O)[O-])c4)c(Oc4cnc5[nH]ccc5c4)c3)CC2)C1 (some centres unmarked) [Example 52, 2-((1H-pyrrolo[2,3-b]pyridin-5-yl)oxy)-4-(2-(4-(3,4-difluorobenzyl)-2-(2-isopropylphenyl)piperazin-1-yl)-7-azaspiro[3.5]nonan-7-yl)-N-((4-((((1r,4r)-4-hydroxy-4-methylcyclohexyl)methyl)amino)-3-nitrophenyl)sulfonyl)benzamide] | 0.36 nM | 0.61 nM | 2.5 | – | < 1 µL/min/mg | –
CC(C)c1ccccc1C1CN(Cc2ccccc2F)CCN1C1CC2(CCN(c3ccc(C(=O)NS(=O)(=O)c4ccc(NC[C@H]5CC[C@](C)(O)CC5)c([N+](=O)[O-])c4)c(Oc4cnc5[nH]ccc5c4)c3)CC2)C1 (some centres unmarked) [Example 46, 2-((1H-pyrrolo[2,3-b]pyridin-5-yl)oxy)-4-(2-(4-(2-fluorobenzyl)-2-(2-isopropylphenyl)piperazin-1-yl)-7-azaspiro[3.5]nonan-7-yl)-N-((4-((((1r,4r)-4-hydroxy-4-methylcyclohexyl)methyl)amino)-3-nitrophenyl)sulfonyl)benzamide] | 0.91 nM | 1.8 nM | 5.1 | 131 min | 10.5 µL/min/mg | –
COc1ccc(CN2CCN(C3CC4(C3)CN(c3ccc(C(=O)NS(=O)(=O)c5ccc(NC[C@H]6CC[C@](C)(O)CC6)c([N+](=O)[O-])c5)c(Oc5cnc6[nH]ccc6c5)c3)C4)[C@H](c3ccccc3C(C)C)C2)cc1 [Example 147, 2-((1H-pyrrolo[2,3-b]pyridin-5-yl)oxy)-N-((4-((((1r,4r)-4-hydroxy-4-methylcyclohexyl)methyl)amino)-3-nitrophenyl)sulfonyl)-4-(6-((R)-2-(2-isopropylphenyl)-4-(4-methoxybenzyl)piperazin-1-yl)-2-azaspiro[3.3]heptan-2-yl) benzamide] | 0.14 nM | 0.086 nM | 1.6 | 301 min | 4.6 µL/min/mg | –
CC(C)c1ccccc1C1CN(Cc2cc(F)cc(F)c2)CCN1C1CC2(CCN(c3ccc(C(=O)NS(=O)(=O)c4ccc(NC[C@H]5CC[C@](C)(O)CC5)c([N+](=O)[O-])c4)c(Oc4cnc5[nH]ccc5c4)c3)CC2)C1 (some centres unmarked) [Example 51, 2-((1H-pyrrolo[2,3-b]pyridin-5-yl)oxy)-4-(2-(4-(3,5-difluorobenzyl)-2-(2-isopropylphenyl)piperazin-1-yl)-7-azaspiro[3.5]nonan-7-yl)-N-((4-((((1r,4r)-4-hydroxy-4-methylcyclohexyl)methyl)amino)-3-nitrophenyl)sulfonyl)benzamide] | 0.49 nM | 1.5 nM | 3.5 | 306 min | 4.5 µL/min/mg | –
COc1ccc(CN2CCN(C3CC4(C3)CN(c3ccc(C(=O)NS(=O)(=O)c5ccc(NC[C@H]6CC[C@](C)(O)CC6)c([N+](=O)[O-])c5)c(Oc5cnc6[nH]cc(F)c6c5)c3)C4)[C@H](c3ccccc3C(C)C)C2)cc1OC [Example 141a, 4-(6-((R)-4-(3,4-dimethoxybenzyl)-2-(2-isopropylphenyl)piperazin-1-yl)-2-azaspiro[3.3]heptan-2-yl)-2-((3-fluoro-1H-pyrrolo[2,3-b]pyridin-5-yl)oxy)-N-((4-((((1r,4r)-4-hydroxy-4-methylcyclohexyl)methyl)amino)-3-nitrophenyl)sulfonyl)benzamide] | 0.166 nM | 0.072 nM | 1.3 | 18100 min | 0.07 µL/min/mg | significantly lower
COc1ccc(CN2CCN(C3CC4(CCN(c5ccc(C(=O)NS(=O)(=O)c6ccc(NC[C@H]7CC[C@](C)(O)CC7)c([N+](=O)[O-])c6)c(Oc6cnc7[nH]ccc7c6)c5)CC4)C3)C(c3ccccc3C(C)C)C2)c(OC)c1 (some centres unmarked) [Example 48] | 0.43 nM | 0.2 nM | 2.8 | 323 min | 4.3 µL/min/mg | –
[2H]C([2H])([2H])Oc1ccc(CN2CCN(C3CC4(CCN(c5ccc(C(=O)NS(=O)(=O)c6ccc(NC[C@H]7CC[C@](C)(O)CC7)c([N+](=O)[O-])c6)c(Oc6cnc7[nH]cc(F)c7c6)c5)CC4)C3)[C@H](c3ccccc3C(C)C)C2)cc1OC([2H])([2H])[2H] [Example 198, 4-(2-((R)-4-(3,4-bis(methoxy-d3)benzyl)-2-(2-isopropylphenyl)piperazin-1-yl)-7-azaspiro[3.5]nonan-7-yl)-2-((3-fluoro-1H-pyrrolo[2,3-b]pyridin-5-yl)oxy)-N-((4-((((1r,4r)-4-hydroxy-4-methylcyclohexyl)methyl)amino)-3-nitrophenyl)sulfonyl)benzamide] | 0.12 nM | 0.08 nM | 1.1 | 222 min | 6.3 µL/min/mg | –
COc1cc(CN2CCN(C3CC4(CCN(c5ccc(C(=O)NS(=O)(=O)c6ccc(NC[C@H]7CC[C@](C)(O)CC7)c([N+](=O)[O-])c6)c(Oc6cnc7[nH]ccc7c6)c5)CC4)C3)[C@H](c3ccccc3C(C)C)C2)ccc1C1CC1 [Example 257] | 0.15 nM | – | – | 254 min | 5.5 µL/min/mg | –
COc1cc(CN2CCN(C3CC4(C3)CN(c3ccc(C(=O)NS(=O)(=O)c5ccc(NC[C@H]6CC[C@](C)(O)CC6)c([N+](=O)[O-])c5)c(Oc5cnc6[nH]cc(F)c6c5)c3)C4)[C@H](c3ccccc3C(C)C)C2)ccc1N1CCOCC1 [Example 361, 2-((3-fluoro-1H-pyrrolo[2,3-b]pyridin-5-yl)oxy)-N-((4-((((1r,4r)-4-hydroxy-4-methylcyclohexyl)methyl)amino)-3-nitrophenyl)sulfonyl)-4-(6-((R)-2-(2-isopropylphenyl)-4-(3-methoxy-4-morpholinobenzyl)piperazin-1-yl)-2-azaspiro[3.3]heptan-2-yl) benzamide] | 0.09 nM | 0.079 nM | 1.6 | 273 min | 5.1 µL/min/mg | –
COc1cc(CN2CCN(C3CC4(C3)CN(c3ccc(C(=O)NS(=O)(=O)c5ccc(NC[C@H]6CC[C@](C)(O)CC6)c([N+](=O)[O-])c5)c(Oc5cnc6[nH]cc(F)c6c5)c3)C4)[C@H](c3ccccc3C(C)C)C2)cc(F)c1OC [Example 230, 2-((3-fluoro-1H-pyrrolo[2,3-b]pyridin-5-yl)oxy)-4-(6-((R)-4-(3-fluoro-4,5-dimethoxybenzyl)-2-(2-isopropylphenyl)piperazin-1-yl)-2-azaspiro[3.3]heptan-2-yl)-N-((4-((((1r,4r)-4-hydroxy-4-methylcyclohexyl)methyl)amino)-3-nitrophenyl)sulfonyl)benzamide] | 0.1 nM | – | – | 183 min | 7.6 µL/min/mg | –
COc1cc(CN2CCN(C3CC4(C3)CN(c3ccc(C(=O)NS(=O)(=O)c5ccc(NC[C@H]6CC[C@](C)(O)CC6)c([N+](=O)[O-])c5)c(Oc5cnc6[nH]cc(F)c6c5)c3)C4)[C@H](c3ccccc3C(C)C)C2)ccc1OC1CC1 [Example 321, 4-(6-((R)-4-(4-cyclopropoxy-3-methoxybenzyl)-2-(2-isopropylphenyl)piperazin-1-yl)-2-azaspiro[3.3]heptan-2-yl)-2-((3-fluoro-1H-pyrolo[2,3-b]pyridin-5-yl)oxy)-N-((4-((((1r,4r)-4-hydroxy-4-methylcyclohexy)methyl)amino)-3-nitrophenyl)sulfonyl)benzamide] | 0.22 nM | 0.14 nM | 0.79 | 628 min | 2.2 µL/min/mg | –
COc1ccc(CN2CCN(C3CC4(CCN(c5ccc(C(=O)NS(=O)(=O)c6ccc(NC[C@H]7CC[C@](C)(O)CC7)c([N+](=O)[O-])c6)c(Oc6cnc7[nH]ccc7c6)c5)CC4)C3)[C@H](c3ccccc3C(C)C)C2)cc1OC [Example 81a, 2-((1H-pyrrolo[2,3-b]pyridin-5-yl)oxy)-4-(2-((R)-4-(3,4-dimethoxybenzyl)-2-(2-isopropylphenyl)piperazin-1-yl)-7-azaspiro[3.5]nonan-7-yl)-N-((4-((((1r,4r)-4-hydroxy-4-methylcyclohexyl)methyl)amino)-3-nitrophenyl)sulfonyl)benzamide] | 0.146 nM | – | – | 219 min | 6.32 µL/min/mg | –
